{"source": "patent US9085555B2", "about": "“Complement pathway modulators and uses thereof” (priority 2011, dated 2015)", "data": [{"target": "Factor D (Homo sapiens (Human), UniProt P00746)", "sequence (P00746 26-253)": "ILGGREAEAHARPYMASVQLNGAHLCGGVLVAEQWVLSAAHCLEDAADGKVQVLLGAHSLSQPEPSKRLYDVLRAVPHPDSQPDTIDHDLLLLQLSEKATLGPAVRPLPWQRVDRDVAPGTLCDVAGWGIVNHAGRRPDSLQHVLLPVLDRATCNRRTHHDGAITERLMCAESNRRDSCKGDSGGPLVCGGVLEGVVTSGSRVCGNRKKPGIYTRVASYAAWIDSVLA", "test": "biochemical", "format": "biochemical", "settings": "not given", "units": {"IC50": "nM"}, "values": [{"smiles": "NC(=O)n1cc(NC(=O)N2CC3CC2(C(=O)NCc2cccc(Cl)c2F)C3)c2ccccc21", "note": "[Example 136, 2-Aza-bicyclo[2.1.1]hexane-1,2-dicarboxylic acid 2-[(1-carbamoyl-1H-indol-3-yl)-amide] 1-(3-chloro-2-fluoro-benzylamide)]", "IC50": 17900}]}, {"target": "Factor D (Homo sapiens (Human), UniProt P00746)", "test": "biochemical", "format": "biochemical", "settings": "read-out: IC50", "units": {"IC50": "nM"}, "values": [{"smiles": "N#C[C@H]1C[C@@H](C(=O)Nc2cccc(OC(F)(F)F)c2)N(C(=O)Nc2cn(C(N)=O)c3ccccc23)C1", "note": "[Example 125, (2S,4S)-4-Cyano-pyrrolidine-1,2-dicarboxylic acid 1-[(1-carbamoyl-1H-indol-3-yl)-amide]2-[(3-trifluoromethoxy-phenyl)-amide]]", "IC50": 5100}, {"smiles": "C[C@@H]1CCN(C(=O)Nc2cn(C(N)=O)c3ccccc23)[C@@H]1C(=O)NCc1cccc(Cl)c1F", "note": "[Example 126, (2S,3R)-3-Methyl-pyrrolidine-1,2-dicarboxylic acid 1-[(1-carbamoyl-1H-indol-3-yl)-amide] 2-(3-chloro-2-fluoro-benzylamide)]", "IC50": 100}, {"smiles": "CC(C)(C)OC(=O)Cc1ccc2c(NC(=O)N3[C@@H]4C[C@@H]4C[C@H]3C(=O)NCc3cccc(Cl)c3F)cn(C(N)=O)c2c1", "note": "[Example 127, (1-Carbamoyl-3-{[(1R,3S,5R)-3-(3-chloro-2-fluoro-benzylcarbamoyl)-2-aza-bicyclo[3.1.0]hexane-2-carbonyl]-amino}-1H-indol-6-yl)-acetic acid tert-butyl ester]", "IC50": 3}, {"smiles": "CO[C@H]1C[C@@H](C(=O)Nc2cccc(OC(F)(F)F)c2)N(C(=O)Nc2cn(C(N)=O)c3ccccc23)C1", "note": "[Example 128, (2S,4S)-4-Methoxy-pyrrolidine-1,2-dicarboxylic acid 1-[(1-carbamoyl-1H-indol-3-yl)-amide] 2-[(3-trifluoromethoxy-phenyl)-amide]]", "IC50": 2000}, {"smiles": "CC(=O)n1cc(NC(=O)N2[C@@H]3C[C@@H]3C[C@H]2C(=O)N[C@H](CO)c2cccc(Cl)c2F)c2ccccc21", "note": "[Example 129, (1R,3S,5R)-2-Azabicyclo[3.1.0]hexane-2,3-dicarboxylic acid 2-[(1-acetyl-1H-indol-3-yl)-amide] 3-{[(S)-1-(3-chloro-2-fluoro-phenyl)-2hydroxy-ethyl]-amide}]", "IC50": 4}, {"smiles": "CNC(=O)n1cc(NC(=O)N2[C@@H]3C[C@@H]3C[C@H]2C(=O)NCc2cccc(Cl)c2F)c2ccccc21", "note": "[Example 130, (1R,3S,5R)-2-Azabicyclo[3.1.0]hexane-2,3-dicarboxylic acid 3-(3-chloro-2-fluoro-benzylamide) 2-[(1-methylcarbamoyl-1H-indol-3-yl)-amide]]", "IC50": 54}, {"smiles": "COCCOc1ccc2c(c1)c(NC(=O)N1C[C@](C)(F)C[C@H]1C(=O)NCc1cccc(Cl)c1F)cn2C(N)=O", "note": "[Example 132, (2S,4R)-4-Fluoro-methyl-pyrrolidine-1,2-dicarboxylic acid 1-{[1-carbamoyl-5-(2-methoxy-ethoxy)-1H-indol-3-yl]-amide} 2-(3-chloro-2-fluoro-benzylamide)]", "IC50": 18}, {"smiles": "COC(=O)COc1ccc2c(c1)c(NC(=O)N1[C@@H]3C[C@@H]3C[C@H]1C(=O)NCc1cccc(Cl)c1F)cn2C(N)=O", "note": "[Example 133, (1-carbamoyl-3-{[(1R,3S,5R)-3-(3-chloro-2-fluoro-benzylcarbamoyl)-2-azabicyclo[3.1.0]hexane-2-carbonyl]amino}-1H-indol-5-yloxy)-acetic acid methyl ester]", "IC50": 6}, {"smiles": "NC(=O)n1cc(NC(=O)N2CC3CC3[C@H]2C(=O)NCc2cccc(Cl)c2F)c2ccccc21", "note": "(stereo partly drawn) [Example 135, (1S,2S,5R)-3-Aza-bicyclo[3.1.0]hexane-2,3-dicarboxylic acid 3-[(1-carbamoyl-1H-indol-3-yl)-amide] 2-(3-chloro-2-fluoro-benzylamide)]", "IC50": 59}, {"smiles": "NC(=O)n1cc(NC(=O)N2C[C@H](F)C[C@H]2C(=O)NCc2cccc(Br)c2F)c2ccccc21", "note": "[Example 138, (2S,4R)-4-Fluoro-pyrrolidine-1,2-dicarboxylic acid 2-(3-bromo-2-fluoro-benzylamide) 1-[(1-carbamoyl-1H-indol-3-yl)-amide]]", "IC50": 9}, {"smiles": "CC(=O)NC[C@H]1CC[C@@H](C(=O)Nc2cccc(OC(F)(F)F)c2)N1C(=O)Nc1cn(C(N)=O)c2ccccc12", "note": "[Example 139, (2S,5R)-5-(Acetylamino-methyl)-pyrrolidine-1,2-dicarboxylic acid 1-[(1-carbamoyl-1H-indol-3-yl)-amide] 2-[(3-trifluoromethoxy-phenyl)-amide]]", "IC50": 1500}, {"smiles": "NC(=O)n1cc(NC(=O)N2C[C@H](F)C[C@H]2C(=O)NCc2cc(C(=O)O)cc(Cl)c2F)c2ccccc21", "note": "[Example 144, 3-({[(2S,4R)-1-(1-carbamoyl-1H-indol-3-ylcarbamoyl)-4-fluoro-pyrrolidine-2-carbonyl]-amino}-methyl)-5-chloro-4-fluoro-benzoic acid]", "IC50": 15}, {"smiles": "NC(=O)n1cc(NC(=O)N2CC=C[C@H]2C(=O)Nc2cccc(OC(F)(F)F)c2)c2ccccc21", "note": "[Example 145, (S)-2,5-Dihydro-pyrrole-1,2-dicarboxylic acid 1-[(1-carbamoyl-1H-indol-3-yl)-amide] 2-[(3-trifluoromethoxy-phenyl)-amide]]", "IC50": 300}, {"smiles": "NC(=O)n1cc(NC(=O)N2CC3O[C@@H]3[C@H]2C(=O)NCc2cccc(Cl)c2F)c2ccccc21", "note": "(stereo partly drawn) [Example 146, (1R,2S,5S)-6-Oxa-3-aza-bicyclo[3.1.0]hexane-2,3-dicarboxylic acid 3-[(1-carbamoyl-1H-indol-3-yl)-amide] 2-(3-chloro-2-fluoro-benzylamide)]", "IC50": 9}, {"smiles": "NC(=O)n1cc(NC(=O)N2C[C@@H](C(F)(F)F)C[C@H]2C(=O)NCc2cccc(Cl)c2F)c2ccccc21", "note": "[Example 147, (2S,4S)-4-Trifluoromethyl-pyrrolidine-1,2-dicarboxylic acid 1-[(1-carbamoyl-1H-indol-3-yl)-amide] 2-(3-chloro-2-fluoro-benzylamide)]", "IC50": 120}, {"smiles": "NC(=O)n1cc(NC(=O)N2CC[C@@H]3C[C@@]32C(=O)NCc2cccc(Cl)c2F)c2ccccc21", "note": "[Example 149, (1S,5R)-2-Aza-bicyclo[3.1.0]hexane-1,2-dicarboxylic acid 2-[(1-carbamoyl-1H-indol-3-yl)-amide] 1-(3-chloro-2-fluoro-benzylamide)]", "IC50": 10800}, {"smiles": "CC1(C)SC[C@@H](C(=O)Nc2cccc(OC(F)(F)F)c2)N1C(=O)Nc1cn(C(N)=O)c2ccccc12", "note": "[Example 151, (R)-2,2-Dimethyl-thiazolidine-3,4-dicarboxylic acid 3-[(1-carbamoyl-1H-indol-3-yl)-amide] 4-[(3-trifluoromethoxy-phenyl)-amide]]", "IC50": 9320}, {"smiles": "N#Cc1ccc(-c2cccc(NC(=O)[C@@H]3CCCN3C(=O)Nc3cn(C(N)=O)c4ccccc34)c2)cc1", "note": "[Example 152, (S)-pyrrolidine-1,2-dicarboxylic acid 1-[(1-carbamoyl-1H-indol-3-yl)amide]2-[(4′-cyano-biphenyl-3-yl)-amide]]", "IC50": 4400}, {"smiles": "COC(=O)c1cc(Br)cc(NC(=O)[C@@H]2C[C@@H](F)CN2C(=O)Nc2cn(C(N)=O)c3ccccc23)c1", "note": "[Example 153, 3-Bromo-5-{[(2S,4R)-1-(1-carbamoyl-1H-indol-3-ylcarbamoyl)-4-fluoro-pyrrolidine-2-carbamoyl]-amino}-benzoic acid methyl ester]", "IC50": 55}, {"smiles": "CN(C)CCNC(=O)c1cc(Cl)c(F)c(CNC(=O)[C@@H]2C[C@@H](F)CN2C(=O)Nc2cn(C(N)=O)c3ccccc23)c1", "note": "[Example 154, (2S,4R)-4-Fluoro-pyrrolidine-1,2-dicarboxylic acid 1-[(1-carbamoyl-1H-indol-3-yl)-amide] 2-[3-chloro-5-(2-dimethylamino-ethyl-carbamoyl)-2-fluoro-benzylamide]]", "IC50": 1370}, {"smiles": "NC(=O)n1cc(NC(=O)N2C3CC3C[C@H]2C(=O)NCc2ccc(Cl)s2)c2ccccc21", "note": "(stereo partly drawn) [Example 155, (1R,3S,5R)-2-Aza-bicyclo[3.1.0]hexane-2,3-dicarboxylic acid 2-[(1-carbamoyl-1H-indol-3-yl)-amide] 3-[(5-chloro-thiophen-2-ylmethyl)-amide]]", "IC50": 20}, {"smiles": "COC(=O)c1ccc(NC(=O)[C@@H]2C[C@@H](F)CN2C(=O)Nc2cn(C(N)=O)c3ccccc23)cc1Br", "note": "[Example 156, 2-Bromo-4-{[(2S,4R)-1-(1-carbamoyl-1H-indol-3-ylcarbamoyl)-4-fluoro-pyrrolidine-2-carbonyl]-amino}-benzoic acid methyl ester]", "IC50": 150}, {"smiles": "CCc1cccc(NC(=O)[C@@H]2CC3CC3N2C(=O)Nc2cn(C(N)=O)c3ccccc23)n1", "note": "(stereo partly drawn) [Example 158, (1R,3S,5R)-2-Aza-bicyclo[3.1.0]hexane-2,3-dicarboxylic acid 2-[(1-carbamoyl-1H-indol-3-yl)-amide] 3-[(6-ethyl-pyridin-2-yl)-amide]]", "IC50": 80}, {"smiles": "NC(=O)n1cc(NC(=O)N2C[C@H](F)C[C@H]2C(=O)Nc2cc(Br)cc(C(=O)O)c2)c2ccccc21", "note": "[Example 159, 3-bromo-5-{[(2S,4R)-1-(1-carbamoyl-1H-indol-3-ylcarbamoyl)-4-fluoro-pyrrolidine-2-carbonyl]-amino}-benzoic acid]", "IC50": 55}, {"smiles": "CC(C)(C)c1csc(NC(=O)[C@@H]2CCCN2C(=O)Nc2cn(C(N)=O)c3ccccc23)n1", "note": "[Example 160, (S)-Pyrrolidine-1,2-dicarboxylic acid 2-[(4-tert-butyl-thiazol-2-yl)-amide] 1-[(1-carbamoyl-1H-indol-3-yl)-amide]]", "IC50": 1400}, {"smiles": "NC(=O)n1cc(NC(=O)N2CSC[C@H]2C(=O)Nc2cccc(OC(F)(F)F)c2)c2ccccc21", "note": "[Example 161, (R)-Thiazolidine-3,4-dicarboxylic acid 3-[(1-carbamoyl-1H-indol-3-yl)-amide] 4-[(3-trifluoromethoxy-phenyl)-amide]]", "IC50": 987}, {"smiles": "COCCOc1ccc2c(c1)c(NC(=O)N1C3CC3C[C@H]1C(=O)NCc1cccc(Cl)c1F)cn2C(N)=O", "note": "(stereo partly drawn) [Example 162, (1R,3S,5R)-2-Aza-bicyclo[3.1.0]hexane-2,3-dicarboxylic acid 2-{[1-carbamoyl-5-(2-methoxy-ethoxy)-1H-indol-3-yl]-amide} 3-(3-chloro-2-fluoro-benzylamide)]", "IC50": 5}, {"smiles": "CCc1cccc(NC(=O)[C@@H]2C[C@@H](F)CN2C(=O)Nc2cn(C(N)=O)c3ccccc23)n1", "note": "[Example 163, (2S,4R)-4-Fluoro-pyrrolidine-1,2-dicarboxylic acid 1-[(1-carbamoyl-1H-indol-3-yl)-amide] 2-[(6-ethyl-pyridin-2-yl)-amide]]", "IC50": 100}]}]}
